# Measurements published in patent publication US8722849B2, “Polypeptides” (Novo Nordisk A/S, priority 2011, dated 2014).
# Read-outs that look alike come from different tables or passages of the source. Starred links: 1 amine or outer side, 2 acyl side, 3 side chain; linkers in the order of their positions; H or OH if unused. Positions of bridges follow the written chain, without caps; N, C: chain ends. Residues, ends and D or L forms follow the SMILES beside them. *: point of attachment. C20 diacid = O=C(O)CCCCCCCCCCCCCCCCCCC(=O)*; γGlu = O=C(O)[C@H](CCC(=O)[*:2])N[*:1]; AEEA = NCCOCCOCC(=O)O
# Test: Assay (IV) determination of solubility
# Type: physicochemical
# How it was run: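 Stock ~500 nmol/ml in water; 1:1 with 100 mM buffer, pH 3.0–8.0 (glycylglycine ≤5.0, bistrispropane ≥6.0); 18 h RT; spin; HPLC quantitation of soluble polypeptide.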
# [1] = pH 3, pH 3.0, read-out: Solubility pH 3.0
# [2] = pH 4, pH 4.0, 18 hours at room temperature, Table 2, read-out: Solubility pH 4.0
# [3] = pH 4, pH 4.0, read-out: Solubility pH 4.0
# [4] = pH 5, pH 5.0, read-out: Solubility pH 5.0
# [5] = pH 6, pH 6.0, read-out: Solubility pH 6.0
# [6] = pH 6.5, pH 6.5, read-out: Solubility pH 6.5
# [7] = pH 7, pH 7.0, 18 hours at room temperature, Table 3, read-out: Solubility pH 7.0
# [8] = pH 7, pH 7.0, read-out: Solubility pH 7.0
# [9] = pH 7.5, pH 7.5, read-out: Solubility pH 7.5
# [10] = pH 8, pH 8.0, read-out: Solubility pH 8.0
solubility [1] [µM],solubility [2] [µM],solubility [3] [µM],solubility [4] [µM],solubility [5] [µM],solubility [6] [µM],solubility [7] [µM],solubility [8] [µM],solubility [9] [µM],solubility [10] [µM],Compound
> 200,> 200,> 200,> 200,> 200,> 200,> 200,> 200,> 200,> 200,"CC(C)C[C@H](NC(=O)[C@H](CCCNC(=N)N)NC(=O)[C@H](CCC(N)=O)NC(=O)[C@@H](NC(=O)[C@H](C)NC(=O)[C@@H]1CSSC[C@H](NC(=O)[C@H](CCCCN)NC(=O)CC[C@H](NC(=O)CCCCCCCCCCCCCCCCCCC(=O)O)C(=O)O)C(=O)N[C@@H](CC(N)=O)C(=O)N[C@@H]([C@@H](C)O)C(=O)N[C@@H](C)C(=O)N[C@@H]([C@@H](C)O)C(=O)N1)[C@@H](C)O)C(=O)N[C@@H](C)C(=O)N[C@@H](CCC(=O)O)C(=O)N[C@@H](Cc1ccccc1)C(=O)N[C@@H](CC(C)C)C(=O)N[C@H](C(=O)N[C@@H](Cc1c[nH]cn1)C(=O)N[C@@H](CO)C(=O)N[C@@H](CO)C(=O)N[C@@H](CO)C(=O)N[C@@H](CO)C(=O)N1CCC[C@H]1C(=O)NCC(=O)N[C@@H](C)C(=O)N1CCC[C@H]1C(=O)N[C@@H](CC(C)C)C(=O)N[C@@H](CO)C(=O)N[C@@H](CO)C(=O)N[C@H](C(=O)N[C@@H](CC(=O)O)C(=O)N[C@H](C(=O)NCC(=O)N[C@@H](CO)C(=O)N[C@@H](CC(=O)O)C(=O)N[C@H](C(=O)N1CCC[C@H]1C(N)=O)[C@@H](C)O)C(C)C)[C@@H](C)O)C(C)C [Example 171, N-alpha-[(S)-4-Carboxy-4-(19-carboxynonadecanoylamino)butyryl]-[Glu14,Ser21,Ser22,Pro23,Ala25,Pro26,Ser28,Ser29,Asp31,Asp35,Pro37]-pramlintide] ({C20 diacid-γGlu}-KCNTATCATQRLAEFLVHSSSSPGAPLSSTDVGSDTP-NH2; disulfide 2-7)"
> 200,> 200,> 200,> 200,> 200,> 200,> 200,> 200,> 200,> 200,"CC[C@H](C)[C@H](NC(=O)[C@@H]1CCCN1C(=O)CNC(=O)[C@H](Cc1ccccc1)NC(=O)[C@H](CC(N)=O)NC(=O)[C@H](CC(N)=O)NC(=O)[C@H](CO)NC(=O)[C@H](CO)NC(=O)[C@H](Cc1c[nH]cn1)NC(=O)[C@H](CCCNC(=N)N)NC(=O)[C@H](CC(C)C)NC(=O)[C@H](Cc1ccccc1)NC(=O)[C@H](CCC(=O)O)NC(=O)[C@H](C)NC(=O)[C@H](CC(C)C)NC(=O)[C@H](CCCNC(=N)N)NC(=O)[C@H](CCC(N)=O)NC(=O)[C@@H](NC(=O)[C@H](C)NC(=O)[C@@H]1CSSC[C@H](NC(=O)[C@@H](N)CCCCNC(=O)CC[C@H](NC(=O)CCCCCCCCCCCCCCCCCCC(=O)O)C(=O)O)C(=O)N[C@@H](CC(N)=O)C(=O)N[C@@H]([C@@H](C)O)C(=O)N[C@@H](C)C(=O)N[C@@H]([C@@H](C)O)C(=O)N1)[C@@H](C)O)C(=O)N[C@@H](CC(C)C)C(=O)N1CCC[C@H]1C(=O)N1CCC[C@H]1C(=O)N[C@H](C(=O)N[C@@H](CC(N)=O)C(=O)N[C@H](C(=O)NCC(=O)N[C@@H](CO)C(=O)N[C@@H](CC(N)=O)C(=O)N[C@H](C(=O)N1CCC[C@H]1C(N)=O)[C@@H](C)O)C(C)C)[C@@H](C)O [Example 177, N-epsilon1-[(S)-4-Carboxy-4-(19-carboxynonadecanoylamino)butyryl]-[Glu14,Arg17,Pro37]-pramlintide]"

# More lines, now with the values behind:
Compound,solubility [1] [µM],solubility [2] [µM],solubility [3] [µM],solubility [4] [µM],solubility [5] [µM],solubility [6] [µM],solubility [7] [µM],solubility [8] [µM],solubility [9] [µM],solubility [10] [µM]
"CC[C@H](C)[C@H](NC(=O)[C@@H]1CCCN1C(=O)CNC(=O)[C@H](Cc1ccccc1)NC(=O)[C@H](CCC(N)=O)NC(=O)[C@H](CCC(N)=O)NC(=O)[C@H](CO)NC(=O)[C@H](CO)NC(=O)[C@H](Cc1c[nH]cn1)NC(=O)[C@H](CCCNC(=N)N)NC(=O)[C@H](CC(C)C)NC(=O)[C@H](Cc1ccccc1)NC(=O)[C@H](CCC(=O)O)NC(=O)[C@H](C)NC(=O)[C@H](CC(C)C)NC(=O)[C@H](CCCNC(=N)N)NC(=O)[C@H](CCC(N)=O)NC(=O)[C@@H](NC(=O)[C@H](C)NC(=O)[C@@H]1CSSC[C@H](NC(=O)[C@H](CCCNC(=N)N)NC(=O)[C@H](CCC(=O)O)NC(=O)[C@H](CCC(=O)O)NC(=O)CC[C@H](NC(=O)CCCCCCCCCCCCCCCCCCC(=O)O)C(=O)O)C(=O)N[C@@H](CC(N)=O)C(=O)N[C@@H]([C@@H](C)O)C(=O)N[C@@H](C)C(=O)N[C@@H]([C@@H](C)O)C(=O)N1)[C@@H](C)O)C(=O)N[C@@H](CC(C)C)C(=O)N1CCC[C@H]1C(=O)N1CCC[C@H]1C(=O)N[C@H](C(=O)N[C@@H](CCC(N)=O)C(=O)N[C@H](C(=O)NCC(=O)N[C@@H](CO)C(=O)N[C@@H](CCC(N)=O)C(=O)N[C@H](C(=O)N1CCC[C@H]1C(N)=O)[C@@H](C)O)C(C)C)[C@@H](C)O [Example 160, N-alpha-[(S)-4-Carboxy-4-(19-carboxynonadecanoylamino)butyryl]-Glu-Glu-[Arg1,Glu14,Arg17,Gln21,Gln22,Gln31,Gln35,Pro37]-pramlintide] ({C20 diacid-γGlu}-EERCNTATCATQRLAEFLRHSSQQFGPILPPTQVGSQTP-NH2; disulfide 4-9)",> 200,> 200,> 200,> 200,> 200,> 200,> 200,> 200,> 200,> 200
"CC[C@H](C)[C@H](NC(=O)[C@@H]1CCCN1C(=O)CNC(=O)[C@H](Cc1ccccc1)NC(=O)[C@H](CC(N)=O)NC(=O)[C@H](C)NC(=O)[C@H](CO)NC(=O)[C@H](CO)NC(=O)[C@H](Cc1c[nH]cn1)NC(=O)[C@H](Cc1c[nH]cn1)NC(=O)[C@H](CC(C)C)NC(=O)[C@H](Cc1ccccc1)NC(=O)[C@H](CCC(=O)O)NC(=O)[C@H](C)NC(=O)[C@H](CC(C)C)NC(=O)[C@H](CCCNC(=N)N)NC(=O)[C@H](CCC(N)=O)NC(=O)[C@@H](NC(=O)[C@H](C)NC(=O)[C@@H]1CSSC[C@H](NC(=O)[C@H](CCCCN)NC(=O)COCCOCCNC(=O)COCCOCCNC(=O)CC[C@H](NC(=O)CCCCCCCCCCCCCCCCCCC(=O)O)C(=O)O)C(=O)N[C@@H](CC(N)=O)C(=O)N[C@@H]([C@@H](C)O)C(=O)N[C@@H](C)C(=O)N[C@@H]([C@@H](C)O)C(=O)N1)[C@@H](C)O)C(=O)N[C@@H](CC(C)C)C(=O)N1CCC[C@H]1C(=O)N1CCC[C@H]1C(=O)N[C@H](C(=O)N[C@@H](CC(N)=O)C(=O)N[C@H](C(=O)NCC(=O)N[C@@H](CO)C(=O)N[C@@H](CC(N)=O)C(=O)N[C@H](C(=O)N1CCC[C@H]1C(N)=O)[C@@H](C)O)C(C)C)[C@@H](C)O [Example 169, N-alpha-[2-(2-{2-[2-(2-{2-[(S)-4-Carboxy-4-(19-carboxyheptadecanoylamino)butyrylamino]ethoxy}ethoxy)acetylamino]ethoxy}ethoxy)acetyl]-[Glu14,His17,Ala21,Pro37]-pramlintide] ({C20 diacid-γGlu-AEEA-AEEA}-KCNTATCATQRLAEFLHHSSANFGPILPPTNVGSNTP-NH2; disulfide 2-7)",> 200,> 200,> 200,> 200,> 200,> 200,> 200,> 200,> 200,> 200
"CC[C@H](C)[C@H](NC(=O)[C@@H]1CCCN1C(=O)CNC(=O)[C@H](Cc1ccccc1)NC(=O)[C@H](CC(N)=O)NC(=O)[C@H](C)NC(=O)[C@H](CO)NC(=O)[C@H](CO)NC(=O)[C@H](Cc1c[nH]cn1)NC(=O)[C@@H](NC(=O)[C@H](CC(C)C)NC(=O)[C@H](Cc1ccccc1)NC(=O)[C@H](CCC(=O)O)NC(=O)[C@H](C)NC(=O)[C@H](CC(C)C)NC(=O)[C@H](CCCNC(=N)N)NC(=O)[C@H](CCC(N)=O)NC(=O)[C@@H](NC(=O)[C@H](C)NC(=O)[C@@H]1CSSC[C@H](NC(=O)[C@H](CCCCN)NC(=O)COCCOCCNC(=O)COCCOCCNC(=O)CC[C@H](NC(=O)CCCCCCCCCCCCCCCCCCC(=O)O)C(=O)O)C(=O)N[C@@H](CC(N)=O)C(=O)N[C@@H]([C@@H](C)O)C(=O)N[C@@H](C)C(=O)N[C@@H]([C@@H](C)O)C(=O)N1)[C@@H](C)O)C(C)C)C(=O)N[C@@H](CC(C)C)C(=O)N1CCC[C@H]1C(=O)N1CCC[C@H]1C(=O)N[C@H](C(=O)N[C@@H](CC(N)=O)C(=O)N[C@H](C(=O)NCC(=O)N[C@@H](CO)C(=O)N[C@@H](Cc1c[nH]cn1)C(=O)N[C@H](C(=O)N1CCC[C@H]1C(N)=O)[C@@H](C)O)C(C)C)[C@@H](C)O [Example 178, N-alpha-[2-(2-{2-[2-(2-{2-[(S)-4-Carboxy-4-(19-carboxyheptadecanoylamino)butyrylamino]ethoxy}ethoxy)acetylamino]ethoxy}ethoxy)acetyl]-[Glu14,Ala21,His35,Pro37]-pramlintide] ({C20 diacid-γGlu-AEEA-AEEA}-KCNTATCATQRLAEFLVHSSANFGPILPPTNVGSHTP-NH2; disulfide 2-7)",> 200,> 200,> 200,> 200,> 200,> 200,> 200,> 200,> 200,> 200
